± gives the uncertainty stated by the source.
Experiment: xn = mol fraction of the nth substance listed

CCCNCCC + CCCCOCCOCCO
viscosity [mPa·s], 100 kPa
Conditions	298.15 K	303.15 K	308.15 K
x2 = 0.05007	0.5938 ± 0.15	0.5507 ± 0.15	0.5178 ± 0.15
x2 = 0.1002	0.6906 ± 0.15	0.6377 ± 0.15	0.5959 ± 0.15
x2 = 0.1502	0.8054 ± 0.15	0.7394 ± 0.15	0.6889 ± 0.15
x2 = 0.2	0.9457 ± 0.15	0.8562 ± 0.15	0.7964 ± 0.15
x2 = 0.3001	1.339 ± 0.15	1.183 ± 0.15	1.093 ± 0.15
x2 = 0.3999	1.79 ± 0.15	1.571 ± 0.15	1.437 ± 0.15
x2 = 0.4999	2.311 ± 0.15	1.998 ± 0.15	1.819 ± 0.15
x2 = 0.5997	2.952 ± 0.15	2.519 ± 0.15	2.248 ± 0.15
x2 = 0.7	3.584 ± 0.15	3.042 ± 0.15	2.71 ± 0.15
x2 = 0.7999	4.119 ± 0.15	3.507 ± 0.15	3.124 ± 0.15
x2 = 0.8998	4.617 ± 0.15	3.926 ± 0.15	3.5 ± 0.15
x2 = 0.9491	4.857 ± 0.15	4.132 ± 0.15	3.683 ± 0.15

CC1CCCCC1 + CCCCCCCCCC
viscosity [mPa·s], 101 kPa
Conditions	293.15 K	298.15 K	303.15 K	308.15 K
x1 = 0.0406	0.9179 ± 0.0075	0.8528 ± 0.007	0.7888 ± 0.0065	–
x1 = 0.1014	–	0.843 ± 0.015	0.787 ± 0.014	0.731 ± 0.013
x1 = 0.2029	0.879 ± 0.0076	0.8207 ± 0.0072	0.76 ± 0.0067	–
x1 = 0.2034	–	0.824 ± 0.014	0.77 ± 0.013	0.716 ± 0.013
x1 = 0.2805	0.8623 ± 0.0077	0.8054 ± 0.0073	0.747 ± 0.0068	–
x1 = 0.3035	–	0.806 ± 0.014	0.753 ± 0.013	0.7 ± 0.012
x1 = 0.3569	0.8458 ± 0.0078	0.7898 ± 0.0074	0.7352 ± 0.0069	–
x1 = 0.4055	–	0.787 ± 0.014	0.735 ± 0.013	0.684 ± 0.012
x1 = 0.4409	0.8287 ± 0.0079	0.7729 ± 0.0074	0.723 ± 0.007	–
x1 = 0.5004	–	0.769 ± 0.013	0.719 ± 0.013	0.669 ± 0.012
x1 = 0.5991	0.7985 ± 0.0082	0.7421 ± 0.0076	0.7008 ± 0.0073	–
x1 = 0.5998	–	0.751 ± 0.013	0.702 ± 0.012	0.654 ± 0.012
x1 = 0.6756	0.7845 ± 0.0083	0.7282 ± 0.0077	0.6906 ± 0.0074	–
x1 = 0.7041	–	0.731 ± 0.013	0.684 ± 0.012	0.637 ± 0.012
x1 = 0.7618	0.7694 ± 0.0084	0.7135 ± 0.0078	0.6796 ± 0.0075	–
x1 = 0.8039	–	0.713 ± 0.013	0.667 ± 0.012	0.621 ± 0.011
x1 = 0.8475	0.7548 ± 0.0085	0.7009 ± 0.008	0.6683 ± 0.0076	–
x1 = 0.8993	–	0.695 ± 0.012	0.651 ± 0.012	0.606 ± 0.011
x1 = 0.9148	0.7428 ± 0.0086	0.6913 ± 0.008	0.6592 ± 0.0077	–

Source: the CheMixHub viscosity set
